Experimental data: US10364267B2, “Deuterated bile acid derivatives as FXR/TGR5 agonists and methods of use thereof” (ENANTA PHARMACEUTICALS, INC., priority 2016, dated 2019)

Target: T1, human FXR (NR1H4) (Homo sapiens, UniProt Q96RI1)
T1 construct: host or cells: CHO (Chinese hamster ovary) reporter cells
T1 sequence (Q96RI1 1-486): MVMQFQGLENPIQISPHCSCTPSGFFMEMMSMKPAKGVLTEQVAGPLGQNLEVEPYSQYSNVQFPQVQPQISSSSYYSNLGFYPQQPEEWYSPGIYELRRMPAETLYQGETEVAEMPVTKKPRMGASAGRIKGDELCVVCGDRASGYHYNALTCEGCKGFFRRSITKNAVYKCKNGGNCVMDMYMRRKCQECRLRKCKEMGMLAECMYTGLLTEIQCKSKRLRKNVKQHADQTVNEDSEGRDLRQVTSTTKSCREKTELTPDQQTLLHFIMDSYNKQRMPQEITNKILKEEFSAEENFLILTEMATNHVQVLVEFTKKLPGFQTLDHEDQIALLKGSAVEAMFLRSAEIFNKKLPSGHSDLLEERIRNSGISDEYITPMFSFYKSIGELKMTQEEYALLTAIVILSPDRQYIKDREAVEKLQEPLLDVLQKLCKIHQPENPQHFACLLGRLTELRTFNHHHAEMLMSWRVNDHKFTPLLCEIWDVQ
Test: Human FXR (NR1H4) Assay (luciferase reporter, Indigo Bioscience kit)
Type: cell-based
Settings: for Efficacy (%): efficacy normalized to CDCA set as 100%, CHO reporter cells expressing human NR1H4
Description: Human FXR (NR1H4) Assay Determination of a ligand mediated Gal4 promoter driven transactivation to quantify ligand binding mediated activation of FXR. FXR Reporter Assay kit purchased from Indigo Bioscience (Catalogue number: IB00601) to determine the potency and efficacy of compound developed by Enanta that can induce FXR activation. The principle application of this reporter assay system is to quantify functional activity of human FXR. The assay utilizes non-human mammalian cells, CHO (Chinese hamster ovary) cells engineered to express human NR1H4 protein (referred to as FXR). Reporter cells also incorporate the cDNA encoding beetle luciferase which catalyzes the substrates and yields photon emission. Luminescence intensity of the reaction is quantified using a plate-reading luminometer, Envision. Reporter Cells include the luciferase reporter gene functionally linked to an FXR responsive promoter. Thus, quantifying changes in luciferase expression in the treated reporter cells provides a sensitive surrogate measure of the changes in FXR activity. […] The assay is according to the manufacturer's instructions. In brief, the assay was performed in white, 96 well plates using final volume of 100 ul containing cells with different doses of compounds. Retrieve Reporter Cells from −80° C. storage. Perform a rapid thaw of the frozen cells by transferring a 10 ml volume of 37° C. cell recovery medium into the tube of frozen cells. Recap the tube of Reporter Cells and immediately place it in a 37° C. water bath for 5-10 minutes. Retrieve the tube of Reporter Cell Suspension from the water bath. Sanitize the outside surface of the tube with a 70% alcohol swab, and then transfer it into the cell culture hood. Dispense 90 μl of cell suspension into each well of the 96-well Assay Plate. Transfer the plate into 37° C. incubator, allowing the cells adherent to the bottom of the well. Dilute compounds in Dilution Plate (DP), and administrate to cells at Assay Plate (AP). DMSO content of the samples was kept at 0.2%. Cells were incubated for additional 22 hours before luciferase activities were measured. Thirty minutes before intending to quantify FXR activity, remove Detection Substrate and Detection Buffer from the refrigerator and place them in a low-light area so that they may equilibrate to room temperature. Remove the plate's lid and discard all media contents by ejecting it into an appropriate waste container. Gently tap the inverted plate onto a clean absorbent paper towel to remove residual droplets. Cells will remain tightly adhered to well bottoms. Add 100 μl of luciferase detection reagent to each well of the assay plate. […] Set the instrument (Envision) to perform a single 5 second “plate shake” prior to reading the first assay well. Read time may be 0.5 second (500 mSec) per well.

Compound	EC50 [nM]	Efficacy (%)
[2H]C([C@@H]1[C@@H]2C[C@H](O)CC[C@]2(C)C2CC[C@@]3(C)C(CC[C@@H]3[C@H](C)CCNC(=O)NS(=O)(=O)N(C)C)C2[C@]1([2H])O)C([2H])([2H])[2H] (stereo partly shown) [Example 5]	100 to 1000	352.
[2H]C([C@@H]1[C@@H]2C[C@H](O)CC[C@]2(C)C2CC[C@@]3(C)C(CC[C@@H]3[C@H](C)CCNC(=O)NS(=O)(=O)c3ccc(C(C)(C)C)cc3)C2[C@]1([2H])O)C([2H])([2H])[2H] (stereo partly shown) [Example 4]	< 100	197
